Data reported in patent publication US11306067B2, “Diphenyl substituted thiophene-2-amide derivatives and pharmaceutical compositions thereof useful as antimicrobial” (DENOVAMED INC., priority 2018, dated 2022).

How the values were obtained:
[1] = system: Acinetobacter Baumannii ATCC 19606; assay: Combination MIC of colistin for antibiotic adjuvant potential; format: cell-based; parameters: unit not given beside the values; conditions: colistin alone; Acinetobacter ATCC 19606
Description: (§1) The MIC of colistin was determined against the bacteria specified below, by itself or in the presence of 1 ug/ml or 10 ug/ml of a compound disclosed herein (nd=not determined): […]

[2] = system: E. coli ATCC 25922; assay: as above; format: cell-based; parameters: unit not given beside the values; conditions: colistin alone
Description: as §1

[3] = system: Pseudomonas aeurginosa ATCC 27853; assay: as above; format: cell-based; parameters: unit not given beside the values; conditions: colistin alone; Pseudomonas ATCC 27853
Description: as §1

[4] = system: Klebsiella pneumoniae (Colistin Resistant) MMX8390; assay: as above; format: cell-based; conditions: colistin alone; K. pneumoniae colistin resistant MMX8390
Description: as §1

[5] = system: Klebsiella pneumoniae (Colistin Sensitive) MMX214; assay: as above; format: cell-based; conditions: colistin alone; K. pneumoniae colistin sensitive MMX214
Description: as §1

[6] = system: E. coli ATCC 25922; parameters: unit not given beside the values; conditions: colistin alone, unexplained range under the value, probably reference range; cited from earlier work

With colistin the MIC of colistin [1] was 0.25, the MIC of colistin [2] was 0.25 and the MIC of colistin [3] was 0.25. The MIC of colistin [4] was 16, the MIC of colistin [5] was 2 and the “MIC of colistin, range in parentheses” value [6] was “(0.25-2)”.
